Measurements as given in US5374772A, “Substituted benzoic acids, inhibitors of phospholipases A2” (Hoffmann-LaRoche Inc., priority 1993, dated 1994).
Structures can show the parent of a compound that is named as a salt.

Experiments:
[1] = biological target: T1, HSF-PLA2 (extracellular PLA2 obtained from human synovial fluid) (Homo sapiens, UniProt P14555); test: Assay for Inhibition of HSF-PLA2 In Vitro; type: biochemical; settings: for inhibition at 10 µM: read-out: % Inhib of HSF-PLA2
T1 construct: extracellular enzyme obtained from human synovial fluid; from tissue; host or cells: pooled human synovial fluid (0.1% v/v in the assay)
T1 sequence (P14555 21-144): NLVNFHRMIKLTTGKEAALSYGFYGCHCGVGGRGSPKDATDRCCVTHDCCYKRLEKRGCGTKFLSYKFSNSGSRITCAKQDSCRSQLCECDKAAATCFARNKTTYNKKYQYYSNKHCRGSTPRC
Description: The PLA2 used in this test is the extracellular enzyme obtained from human synovial fluid (HSF-PLA2). The assay for HSF-PLA2 activity was a modification of the described method [Franson R., Dobrow R., Weiss, J., Elsbach P., and […]. Lipid Res., 19, 18-23 (1978)] which was conducted using [1-^14 C]-oleate-labelled E. coli substrate in excess at a final concentration of 20,000 dpm/ml. This was equivalent to 18.2 mM of cell membrane phospholipid phosphorus and 2×10^9 autoclaved E. coli/ml. The optimal conditions which were developed for the assay of HSF-PLA2 inhibitors are summarized as follows. […] The reaction was terminated by the addition of 2.5 ml of chloroform-methanol (1 to 1.5, v/v). The extraction of lipids from the stopped reaction mixture was conducted by the further additions of 0.5 ml of chloroform and 1 ml of water with mixing. […] The extracted lipid residue was redissolved in […] of a solution containing carrier oleic acid (0.2 mg/ml) of […]]). […] This TLC system rapidly (6 minutes) resolved the enzymatically released product, ^14 C-oleic acid, from the unreacted ^14 C-phospholipid substrate. The unsaturated lipids were located on the chromatogram by a brief exposure to iodine vapor. The oleic acid zone (Rf value 0.95) and phospholipid zone (origin) were cut out, chopped into small pieces, shaken with 2 ml of ethanol-water (80 to 20, v/v) and 15 ml of Aquasol and counted for radioactivity. A control incubation of substrate in the absence of HSF-PLA2 was performed in each experiment. The PLA2 activity of the human synovial fluid was corrected for this small control value. […] The specific activity of PLA2 in the pooled human synovial fluid under the optimal assay conditions was 49.2 nmoles [1-^14 C]-oleic acid released hour^-1 mg^-1. The IC50 (μM concentration of test compound that produces 50% inhibition of PLA2 activity) was determined for each test compound.

[2] = test system: TPA-induced mouse ear edema; test: TPA Induced Mouse Ear Edema Test (ear punch weight); type: in vivo, male CD-1 mice; settings: 30 minutes prior to TPA, ear punch weight at 6 hours; for inhibition in vivo at 1 mg / inhibition in vivo at 0.3 mg: Mus musculus; for inhibition in vivo at 1 mg: 1 mg topical, read-out: % Inhib of TPA Mouse Ear Edema (1 mg); for inhibition in vivo at 0.3 mg: 0.3 mg topical, read-out: % Inhib of TPA Mouse Ear Edema (0.3 mg)
Description: The TPA-induced mouse ear edema test, a model of irritant-induced contact dermatitis is described in the following reference: J. M. Young, B. M. Wagner and […]. Invest. Dermatology 80, 48-52 (1983). For this test, 10 μl of 12-O-tetradecanoylphorbol-13-acetate (TPA), dissolved in a vehicle of pyridine: water: diethyl ether (20:5:75), was applied to the outside of the right ear of 3-4 week old male CD-1 mice (8 animals per group). The test compounds were dissolved in the same vehicle and 10 μl was applied to the inside of the same ear 30 minutes prior to the application of TPA. Ear punches (6 mm) were removed at 6 hours after TPA application, weighed and assayed for myeloperoxidase (MPO) activity as described in the following reference: P. P. Bradley, […]. Christensen and G. Rothstein, J. Invest. Dermatology 78, 206-209 (1982). The wet weight of the ear biopsy punches is a measure of the ear edema and the level of MPO activity in the ear punches is an indicator of neutrophil infiltration. The data are expressed as percent inhibition of drug-[…] relative to the control group.

[3] = test system: croton oil-induced mouse ear edema; test: Croton Oil Mouse Ear Edema Test; type: in vivo, male CD-1 mice; settings: 1 mg topical, coapplied with croton oil, ear punch weight at 6 hours
Description: The croton oil-induced mouse ear edema test, a model of irritant-induced contact dermatitis, has been used for evaluation of the PLA2 inhibitors by the topical route of administration. This test was carried out as described in the following references:
The major active ingredient in croton oil is the tumor promoter 12-O-tetradecanoylphorbol-13-acetate (TPA) and the topical application of TPA to mouse skin has been reported to cause an increase in epidermal PGE2 production as well as an increase in epidermal cell membrane PLA2 activity. Indomethacin, an inhibitor of prostaglandin synthesis, prevented the TPA-mediated increase in epidermal PGE2 levels as well as the TPA-mediated induction of epidermal cell ornithine decarboxylase. Furthermore, the application of PGE2 to mouse skin countered the inhibitory effect of indomethacin upon TPA-stimulated cellular proliferation.
Twenty five μl of a 1% croton oil solution [dissolved in a mixture of pyridine/water/diethyl ether at a ratio of 5/20/75 (croton oil vehicle)] are applied to the outer side of the right ear of 3-4 week old male CD-1 mice (8 animals per group). The test compounds are dissolved directly in the 1% croton oil solution at various concentrations and coapplied. Control animals receive 25 μl of croton oil vehicle on the right ear. Biopsy punches are removed at 6 hours from the fight ear of the animals using a 6 mm skin trephine (Roboz, Washington, D.C.) and the wet weight of the ear punches is determined. The weight of the biopsy punches is a measure of ear inflammation, primarily edema. The data are expressed as percent inhibition relative to control groups.
Statistical analysis of the mean edema values of the control versus the treated groups is performed using Student's t-test. The significance of changes from the mean value for vehicle-treated (control) animals in the following Tables is indicated as follows: *p<0.05, **p<0.01, ***p<0.005,ns/not significant.

| SMILES | inhibition at 10 µM [1] [%] | inhibition in vivo at 1 mg [2] [%] | further results |
| --- | --- | --- | --- |
| O=C(O)c1cc(OCCCOc2ccc(-c3ccccc3)cc2)cc(OCCCOc2ccc(-c3ccccc3)cc2)c1 [Example 6, 3,5-bis[3-(1,1'-Biphenyl-4-yloxy)propoxy]benzoic acid] |  |  | IC50 ([1]; given as 50 % inhibition at the given concentration, 14C-oleate-labelled E. coli substrate, pH 7.3, 37° C., 30 minutes, read-out: % Inhib of HSF-PLA2: 50 (concentration) = IC50 (μM concentration that produces 50% inhibition of PLA2 activity)): 3 µM |
| O=C(O)c1cc(OCCOc2cccc3ccccc23)cc(OCCOc2cccc3ccccc23)c1 [Example 8A, 3,5-bis[2-(1-naphthalenyloxy)ethoxy]benzoic acid] | 67 |  |  |
| CCCCCCCCCCCCCCCCCCOc1cc(OCCOc2ccc3ccccc3c2)cc(C(=O)O)c1 [Example 15, 3-[2-(2-Naphthalenyloxy)ethoxy]-5-(octadecyloxy) benzoic acid] | 77 |  |  |
| CCCCCCCCCCCCCCCCCCOc1cc(OCCCOc2ccc([S+](C)[O-])cc2)cc(C(=O)O)c1 (stereo not drawn) [Example 24, 3-[3-[4-(Methylsulfinyl)phenoxy]propoxy]-5-(octadecyloxy)benzoic acid] | 72 | 43 |  |
| CCCCCCCCCCCCCCCCCCOc1cc(OCCCOc2ccc(S(C)(=O)=O)cc2)cc(C(=O)O)c1 [Example 26, 3-[3-[4-(Methylsulfonyl)phenoxy]propoxy]-5-(octadecyloxy)benzoic acid] | 86 | 42 |  |
| CCCCCCCCCCCCCCCCCCOc1cc(OCCCOc2ccc(OCc3ccccc3)cc2)cc(C(=O)O)c1 [Example 30, 3-[[3-(4-Phenylmethoxy)phenoxy]propoxy]-5-(octadecyloxy)benzoic acid] |  |  | % Inhib of Croton Oil Mouse Ear Edema (1 mg) [3]: 62% |
| CCCCCCCCCCCCCCOc1cc(OCCCOc2ccc(OCc3ccccc3)cc2)cc(C(=O)O)c1 [Example 36, 3-[3-[4-(Phenylmethoxy)phenoxy]propoxy]-5-(tetradecyloxy)benzoic acid] | 87 | 52 |  |
| CCCCCCCCCCOc1cc(OCCCOc2ccc(OCc3ccccc3)cc2)cc(C(=O)O)c1 [Example 39, 3-(Decyloxy)-5-[3-[4-(phenylmethoxy)phenoxy]propoxy]benzoic acid] | 61 |  |  |
| O=C(O)c1cc(OCCCOc2ccc(OCc3ccccc3)cc2)cc(OCCCOc2ccc(OCc3ccccc3)cc2)c1 [Example 41, 3,5-bis[3-[4-(Phenylmethoxy)phenoxy]propoxy]benzoic acid] | 54 | 54 |  |
| O=C(O)c1cc(OCCCOc2ccc(O)cc2)cc(OCCCOc2ccc(O)cc2)c1 [Example 42, 3,5-bis[3-(4-Hydroxyphenoxy)propoxy]benzoic acid] | 5 | 43 |  |
| CCCCCCCCCCCCCCCCCCOc1cc(OCCCOc2ccccc2O)cc(C(=O)O)c1 [Example 46, 3-[3-(2-Hydroxyphenoxy)propoxy]-5-(octadecyloxy) benzoic acid] | 91 |  | inhibition in vivo at 0.3 mg [2]: 47% |
| CCCCCCCCCCCCCCCCCCOc1cccc(C(=O)O)c1OCCCOc1ccc(OCc2ccccc2)cc1 [Example 57, 3-(Octadecyloxy)-2-[3-[4-(phenylmethoxy)phenoxy]propoxy]benzoic acid] | 91 | 62 |  |
| CCCCCCCCCCCCCCOc1cc(OCCCCCCc2cccc(O)c2O)cc(C(=O)OC)c1 [Example 61, 3-[[6-(2,3-Dihydroxyphenyl)hexyl]oxy]-5-(tetradecyloxy) benzoic acid methyl ester] | 17 | 44 |  |
| CCCCCCCCCCOc1cc(OCCCCCCc2cccc(O)c2O)cc(C(=O)OC)c1 [Example 66, 3-(Decyloxy)-5-[[6-(2,3-dihydroxyphenyl)hexyl]oxy]benzoic acid methyl ester] | 22 |  | inhibition in vivo at 0.3 mg [2]: 55% |
| CCCCCCCCCCOc1cc(OCCCCCCc2cccc(O)c2O)cc(C(=O)OCCN(CC)CC)c1 [Example 71, 3-(Decyloxy)-5-[[6-(2,3-dihydroxyphenyl)hexyl]oxy]benzoic acid 2-(diethylamino)ethyl ester monohydrochloride salt] |  | 57 |  |
| CCCCCCCCCCOc1cc(OCCCCCCc2cccc(O)c2O)cc(C(=O)OCOC(C)=O)c1 [Example 72, 3-(Decyloxy)-5-[[6-(2,3-dihydroxyphenyl)hexyl]oxy]benzoic acid (acetyloxy)methyl ester] |  |  | % Inhib of TPA Mouse Ear Edema (0.1 mg) ([2]; 0.1 mg topical): 52% |

Further lines, with some results ahead:

| inhibition at 10 µM [1] [%] | SMILES | inhibition in vivo at 1 mg [2] [%] | further results |
| --- | --- | --- | --- |
| 2 | CCCCCCCCCCCCCCCCCCOc1cc(OCCCOc2ccc(O)cc2)cc(C(=O)OC)c1 [Example 34, 3-[3-(4-Hydroxyphenoxy)propoxy]-5-(octadecyloxy) benzoic acid methyl ester] | 42 |  |
| 75 | CCCCCCCCCCCCCCOc1cc(OCCCOc2ccc(O)cc2)cc(C(=O)O)c1 [Example 37, 3-[3-(4-Hydroxyphenoxy)propoxy]-5-(tetradecyloxy) benzoic acid] | 57 |  |
| 94 | CCCCCCCCCCCCCCCCCCOc1cc(OCCCCCCOc2ccc(O)cc2)cc(C(=O)O)c1 [Example 44] | 46 |  |
| 79 | CCCCCCCCCCCCCCCCCCOc1ccc(OCCCOc2ccc(OCc3ccccc3)cc2)c(C(=O)O)c1 [Example 49, 5-(Octadecyloxy)-2-[3-[4-(phenylmethoxy)phenoxy]propoxy]benzoic acid] |  | inhibition in vivo at 0.3 mg [2]: 27% |
| 93 | CCCCCCCCCCCCCCCCCCOc1ccc(OCCCOc2ccc(O)cc2)c(C(=O)O)c1 [Example 50, 2-[3-(4-Hydroxyphenoxy)propoxy]-5-(octadecyloxy) benzoic acid] | 45 |  |
| 55 | CCCCCCCCCCCCCCCCCCOc1ccc(C(=O)O)c(OCCCOc2ccc(OCc3ccccc3)cc2)c1 [Example 53, 4-(Octadecyloxy)-2-[3-[4-(phenylmethoxy)phenoxy]propoxy]benzoic acid] | 17 |  |
| 79 | CCCCCCCCCCCCCCCCCCOc1ccc(C(=O)O)c(OCCCOc2ccc(O)cc2)c1 [Example 54, 2-[3-(4-Hydroxyphenoxy)propoxy]-4-(octadecyloxy) benzoic acid] | 31 |  |
